Source: patent US9302999B2, “Substituted triazoles as herbicides” (E. I. DU PONT DE NEMOURS AND COMPANY, priority 2012, dated 2016)

Columns and labels:
Type in all cases: in vivo
soybean (Glycine max) = experiment: Test E pre-/postemergence: soybean; conditions: Preemergence, scale 0 to 100
Excerpt: (§1) Seeds of plant species selected from corn (Zea mays), soybean (Glycine max), velvetleaf (Abutilon theophrasti), lambsquarters (Chenopodium album), poinsettia, wild (wild poinsettia, Euphorbia heterophylla), pigweed, palmer (palmer pigweed, Amaranthus palmeri), waterhemp (common waterhemp, Amaranthus rudis), smartweed (ladysthumb smartweed, Polygonum persicaria), surinam grass (Brachiaria decumbens), crabgrass, large (large crabgrass, Digitaria sanguinalis), crabgrass, Brazil (Brazilian crabgrass, Digitaria horizontalis), panicum, fall (fall panicum, Panicum dichotomiflorum), foxtail, giant (giant foxtail, Setaria faberii), foxtail, green (green foxtail, Setaria viridis), goosegrass (Eleusine indica), johnsongrass (Sorghum halepense), ragweed (common ragweed, Ambrosia elation), barnyardgrass (Echinochloa crus-galli), sandbur (southern sandbur, Cenchrus echinatus), arrowleaf sida (Sida rhombifolia), ryegrass, Italian (Italian ryegrass, Lolium multiflorum), dayflower, (VA) (Virginia dayflower, Commelina virginica), field bindweed (Convolvulus arvensis), cocklebur (common cocklebur, Xanthium strumarium), morningglory (Ipomoea coccinea), nightshade (eastern black nightshade, Solanum ptycanthum), kochia (Kochia scoparia), nutsedge, yellow (yellow nutsedge, Cyperus esculentus) and beggarticks (hairy beggarticks, Bidens pilosa) were planted into a silt loam soil and treated preemergence with test chemicals formulated in a non-phytotoxic solvent mixture which included a surfactant. At the same time, plants selected from these crop and weed species were planted in pots containing a growing medium comprising spaghnum peat moss, vermiculite, wetting agent and starter nutrients and treated with postemergence applications of some of the test chemicals formulated in the same manner. Plants ranged in height from 2 to 18 cm for postemergence treatments (1- to 4-leaf stage).
(§2) Treated plants and controls were maintained in a greenhouse for 14 to 21 days, after which time all species were compared to controls and visually evaluated. Plant response ratings, summarized in Table E, are based on a scale of 0 to 100 where 0 is no effect and 100 is complete control. A dash (-) response means no test result.

[1] = tested on: velvetleaf (Abutilon theophrasti); experiment: Test E pre-/postemergence: velvetleaf; conditions: Preemergence, scale 0 to 100
Excerpt: as §1, §2

[2] = tested on: waterhemp (common waterhemp, Amaranthus rudis); experiment: Test E pre-/postemergence: waterhemp; conditions: Preemergence, scale 0 to 100
Excerpt: as §1, §2

[3] = tested on: smartweed (ladysthumb smartweed, Polygonum persicaria); experiment: Test E pre-/postemergence: smartweed; conditions: Preemergence, scale 0 to 100
Excerpt: as §1, §2

[4] = tested on: crabgrass, Brazil (Brazilian crabgrass, Digitaria horizontalis); experiment: Test E pre-/postemergence: crabgrass, Brazil; conditions: Preemergence, scale 0 to 100
Excerpt: as §1, §2

[5] = tested on: ragweed (common ragweed, Ambrosia elation); experiment: Test E pre-/postemergence: ragweed; conditions: Preemergence, scale 0 to 100
Excerpt: as §1, §2

[6] = tested on: barnyardgrass (Echinochloa crus-galli); experiment: Test E pre-/postemergence: barnyardgrass; conditions: Preemergence, scale 0 to 100
Excerpt: as §1, §2

[7] = tested on: dayflower, (VA) (Virginia dayflower, Commelina virginica); experiment: Test E pre-/postemergence: dayflower, (VA); conditions: Preemergence, scale 0 to 100
Excerpt: as §1, §2

kochia (Kochia scoparia) = experiment: Test E pre-/postemergence: kochia; conditions: Preemergence, scale 0 to 100
Excerpt: as §1, §2

[8] = tested on: waterhemp_RES1 (ALS/Triazine resistant common waterhemp, Amaranthus rudis); experiment: Test F postemergence: waterhemp_RES1; conditions: scale 0 to 100
Excerpt: (§3) Seeds of plant species selected from corn (Zea mays), soybean (Glycine max), velvetleaf (Abutilon theophrasti), lambsquarters (Chenopodium album), poinsettia, wild (wild poinsettia, Euphorbia heterophylla), pigweed, palmer (palmer pigweed, Amaranthus palmeri), waterhemp (common waterhemp, Amaranthus rudis), surinam grass (Brachiaria decumbens), crabgrass, Brazil (Brazilian crabgrass, Digitaria horizontalis), panicum, fall (fall panicum Panicum dichotomiflorum), crabgrass, large (large crabgrass, Digitaria sanguinalis), foxtail, giant (giant foxtail, Setaria faberii), foxtail, green (green foxtail Setaria viridis), goosegrass (Eleusine indica), ragweed (common ragweed, Ambrosia elatior), barnyardgrass (Echinochloa crus-galli), sandbur (southern sandbur, Cenchrus echinatus), arrowleaf sida (Sida rhombifolia), ryegrass, Italian (Italian ryegrass, Lolium multiflorum), dayflower, VA (Virginia (VA) dayflower, Commelina virginica), field bindweed (Convolvulus arvensis), cocklebur (common cocklebur, Xanthium strumarium), morningglory (Ipomoea coccinea), nightshade (eastern black nightshade, Solanum ptycanthum), kochia (Kochia scoparia), nutsedge, yellow (yellow nutsedge, Cyperus esculentus), johnsongrass (Sorghum halepense), smartweed (ladysthumb smartweed, Polygonum persicaria), and beggarticks (hairy beggarticks, Bidens pilosa), were planted into a silt loam soil and treated preemergence with test chemicals formulated in a non-phytotoxic solvent mixture which included a surfactant. At the same time, plants selected from these crop and weed species and also pigweed (Amaranthus retroflexus), waterhemp_RES1 (ALS/Triazine resistant common waterhemp, Amaranthus rudis) and waterhemp_RES2 (ALS/HPPD resistant common waterhemp, Amaranthus rudis) were planted in pots containing a planting medium comprising spaghnum peat moss, vermiculite, wetting agent and starter nutrients treated with postemergence applications of some of the test chemicals formulated in the same manner. Plants ranged in height from 2 to 18 cm for postemergence treatments (1- to 4-leaf stage).
as §2

[9] = tested on: waterhemp_RES2 (ALS/HPPD resistant common waterhemp, Amaranthus rudis); experiment: Test F postemergence: waterhemp_RES2; conditions: scale 0 to 100
Excerpt: as §3, §2

FC(F)(F)COc1nn(-c2ccc(C(F)(F)F)cc2)nc1Cc1ccnc(C(F)(F)F)c1 [Compound 14, 4-[[5-(2,2,2-trifluoroethoxy)-2-[4-(trifluoromethyl)phenyl]-2H-1,2,3-triazol-4-yl]methyl]-2-(trifluoromethyl)pyridine]
Plant response rating: Soybean (soybean (Glycine max); 16 g ai/ha): 0
Plant response rating: Soybean (soybean (Glycine max); 31 g ai/ha): 10
Plant response rating: Soybean (soybean (Glycine max); 62 g ai/ha): 25
Plant response rating: Soybean (soybean (Glycine max); 250 g ai/ha): 35
Plant response rating: Velvetleaf ([1]; 16 g ai/ha): 20
Plant response rating: Velvetleaf ([1]; 31 g ai/ha): 35
Plant response rating: Velvetleaf ([1]; 62 g ai/ha): 50
Plant response rating: Velvetleaf ([1]; 125 g ai/ha): 80
Plant response rating: Velvetleaf ([1]; 250 g ai/ha): 95
Plant response rating: Waterhemp ([2]; 16 g ai/ha): 90
Plant response rating: Waterhemp ([2]; 31 g ai/ha): 98
Plant response rating: Waterhemp ([2]; 62 g ai/ha): 100
Plant response rating: Waterhemp ([2]; 125 g ai/ha): 100
Plant response rating: Waterhemp ([2]; 250 g ai/ha): 100
Plant response rating: Smartweed ([3]; 31 g ai/ha): 25
Plant response rating: Smartweed ([3]; 62 g ai/ha): 80
Plant response rating: Smartweed ([3]; 250 g ai/ha): 80
Plant response rating: Crabgrass, Brazil ([4]; 16 g ai/ha): 60
Plant response rating: Crabgrass, Brazil ([4]; 31 g ai/ha): 75
Plant response rating: Crabgrass, Brazil ([4]; 62 g ai/ha): 100
Plant response rating: Crabgrass, Brazil ([4]; 125 g ai/ha): 100
Plant response rating: Crabgrass, Brazil ([4]; 250 g ai/ha): 100
Plant response rating: Ragweed ([5]; 16 g ai/ha): 0
Plant response rating: Ragweed ([5]; 31 g ai/ha): 20
Plant response rating: Ragweed ([5]; 62 g ai/ha): 35
Plant response rating: Ragweed ([5]; 125 g ai/ha): 80
Plant response rating: Ragweed ([5]; 250 g ai/ha): 90
Plant response rating: Barnyardgrass ([6]; 16 g ai/ha): 5
Plant response rating: Barnyardgrass ([6]; 31 g ai/ha): 15
Plant response rating: Barnyardgrass ([6]; 62 g ai/ha): 35
Plant response rating: Barnyardgrass ([6]; 125 g ai/ha): 60
Plant response rating: Barnyardgrass ([6]; 250 g ai/ha): 60
Plant response rating: Dayflower, VA ([7]; 16 g ai/ha): 10
Plant response rating: Dayflower, VA ([7]; 31 g ai/ha): 50
Plant response rating: Dayflower, VA ([7]; 62 g ai/ha): 60
Plant response rating: Dayflower, VA ([7]; 125 g ai/ha): 70
Plant response rating: Dayflower, VA ([7]; 250 g ai/ha): 75
Plant response rating: Kochia (kochia (Kochia scoparia); 16 g ai/ha): 20
Plant response rating: Kochia (kochia (Kochia scoparia); 31 g ai/ha): 50
Plant response rating: Kochia (kochia (Kochia scoparia); 62 g ai/ha): 90
Plant response rating: Kochia (kochia (Kochia scoparia); 125 g ai/ha): 98
Plant response rating: Kochia (kochia (Kochia scoparia); 250 g ai/ha): 100

Cc1nn(-c2ccc(C(F)(F)F)cn2)nc1Oc1ccnc(C(F)(F)F)c1 [Compound 23]
Plant response rating: Soybean (soybean (Glycine max); 16 g ai/ha): 0
Plant response rating: Soybean (soybean (Glycine max); 31 g ai/ha): 0
Plant response rating: Soybean (soybean (Glycine max); 62 g ai/ha): 0
Plant response rating: Soybean (soybean (Glycine max); 125 g ai/ha): 0
Plant response rating: Soybean (soybean (Glycine max); 250 g ai/ha): 20
Plant response rating: Velvetleaf ([1]; 16 g ai/ha): 0
Plant response rating: Velvetleaf ([1]; 31 g ai/ha): 0
Plant response rating: Velvetleaf ([1]; 62 g ai/ha): 10
Plant response rating: Velvetleaf ([1]; 125 g ai/ha): 65
Plant response rating: Velvetleaf ([1]; 250 g ai/ha): 65
Plant response rating: Waterhemp ([2]; 16 g ai/ha): 0
Plant response rating: Waterhemp ([2]; 31 g ai/ha): 80
Plant response rating: Waterhemp ([2]; 62 g ai/ha): 80
Plant response rating: Waterhemp ([2]; 125 g ai/ha): 98
Plant response rating: Waterhemp ([2]; 250 g ai/ha): 100
Plant response rating: Crabgrass, Brazil ([4]; 16 g ai/ha): 0
Plant response rating: Crabgrass, Brazil ([4]; 31 g ai/ha): 0
Plant response rating: Crabgrass, Brazil ([4]; 62 g ai/ha): 65
Plant response rating: Crabgrass, Brazil ([4]; 125 g ai/ha): 65
Plant response rating: Crabgrass, Brazil ([4]; 250 g ai/ha): 85
Plant response rating: Ragweed ([5]; 16 g ai/ha): 0
Plant response rating: Ragweed ([5]; 31 g ai/ha): 0
Plant response rating: Ragweed ([5]; 62 g ai/ha): 0
Plant response rating: Ragweed ([5]; 125 g ai/ha): 0
Plant response rating: Ragweed ([5]; 250 g ai/ha): 25
Plant response rating: Barnyardgrass ([6]; 16 g ai/ha): 0
Plant response rating: Barnyardgrass ([6]; 31 g ai/ha): 0
Plant response rating: Barnyardgrass ([6]; 62 g ai/ha): 0
Plant response rating: Barnyardgrass ([6]; 125 g ai/ha): 20
Plant response rating: Barnyardgrass ([6]; 250 g ai/ha): 20
Plant response rating: Dayflower, VA ([7]; 16 g ai/ha): 0
Plant response rating: Dayflower, VA ([7]; 31 g ai/ha): 0
Plant response rating: Dayflower, VA ([7]; 62 g ai/ha): 0
Plant response rating: Dayflower, VA ([7]; 125 g ai/ha): 5
Plant response rating: Dayflower, VA ([7]; 250 g ai/ha): 5
Plant response rating: Kochia (kochia (Kochia scoparia); 16 g ai/ha): 0
Plant response rating: Kochia (kochia (Kochia scoparia); 31 g ai/ha): 0
Plant response rating: Kochia (kochia (Kochia scoparia); 62 g ai/ha): 60
Plant response rating: Kochia (kochia (Kochia scoparia); 125 g ai/ha): 100
Plant response rating: Kochia (kochia (Kochia scoparia); 250 g ai/ha): 100

Cc1nn(-c2ccnc(Cl)c2)nc1Cc1ccnc(C(F)(F)F)c1 [Compound 141]
Plant response rating, Waterhemp, Res1 ([8]; 8 g ai/ha): 90
Plant response rating, Waterhemp, Res1 ([8]; 16 g ai/ha): 95
Plant response rating, Waterhemp, Res1 ([8]; 31 g ai/ha): 95
Plant response rating, Waterhemp, Res1 ([8]; 62 g ai/ha): 95
Plant response rating, Waterhemp, Res1 ([8]; 125 g ai/ha): 95
Plant response rating, Waterhemp, Res2 ([9]; 8 g ai/ha): 85
Plant response rating, Waterhemp, Res2 ([9]; 16 g ai/ha): 95
Plant response rating, Waterhemp, Res2 ([9]; 31 g ai/ha): 95
Plant response rating, Waterhemp, Res2 ([9]; 62 g ai/ha): 95
Plant response rating, Waterhemp, Res2 ([9]; 125 g ai/ha): 100
